# From ChEMBL document CHEMBL2163283, “Design and synthesis of novel stiripentol analogues as potential anticonvulsants” (Eur J Med Chem, 2012)
# Calls of active or inactive are those of the source. No cut-off for these calls is given here.
# Tests used:
# Mus musculus [1] = assay: Anticonvulsant activity in Swiss albino mouse assessed as protection against subcutaneous pentylenetetrazol-induced seizures at 370 umol/kg, ip administered 30 mins before pentylenetetrazole challenge measured after 30 mins relative to stiripentol; format: functional
# Mus musculus [2] = assay: Anticonvulsant activity in Swiss albino mouse assessed as protection against subcutaneous pentylenetetrazol-induced seizures at 370 umol/kg, ip administered 30 mins before pentylenetetrazole challenge measured after 30 mins; format: functional
# Mus musculus [3] = assay: Anticonvulsant activity in Swiss albino mouse assessed as maximal electroshock-induced seizures at 370 umol/kg, ip administered 30 mins before electroshock challenge; format: functional, organism-based
# Mus musculus [4] = assay: Anticonvulsant activity in Swiss albino mouse assessed as protection against subcutaneous pentylenetetrazol-induced seizures at 390 umol/kg, ip administered 30 mins before pentylenetetrazole challenge measured after 30 mins relative to stiripentol; format: functional
# Mus musculus [5] = assay: Anticonvulsant activity in Swiss albino mouse assessed as protection against subcutaneous pentylenetetrazol-induced seizures at 390 umol/kg, ip administered 30 mins before pentylenetetrazole challenge measured after 30 mins; format: functional
# Mus musculus [6] = assay: Anticonvulsant activity in Swiss albino mouse assessed as maximal electroshock-induced seizures at 390 umol/kg, ip administered 30 mins before electroshock challenge; format: functional, organism-based
# Mus musculus [7] = assay: Anticonvulsant activity in Swiss albino mouse assessed as maximal electroshock-induced seizures at 340 umol/kg, ip administered 30 mins before electroshock challenge; format: functional
# Mus musculus [8] = assay: Anticonvulsant activity in Swiss albino mouse assessed as protection against subcutaneous pentylenetetrazol-induced seizures at 340 umol/kg, ip administered 30 mins before pentylenetetrazole challenge measured after 30 mins; format: functional
# Mus musculus [9] = assay: Anticonvulsant activity in Swiss albino mouse assessed as protection against subcutaneous pentylenetetrazol-induced seizures at 340 umol/kg, ip administered 30 mins before pentylenetetrazole challenge measured after 30 mins relative to stiripentol; format: functional
# Mus musculus [10] = assay: Anticonvulsant activity in Swiss albino mouse assessed as protection against subcutaneous pentylenetetrazol-induced seizures at 346 umol/kg, ip administered 30 mins before pentylenetetrazole challenge measured after 30 mins; format: functional
# Mus musculus [11] = assay: Anticonvulsant activity in Swiss albino mouse assessed as protection against subcutaneous pentylenetetrazol-induced seizures at 346 umol/kg, ip administered 30 mins before pentylenetetrazole challenge measured after 30 mins relative to stiripentol; format: functional
# Mus musculus [12] = assay: Anticonvulsant activity in Swiss albino mouse assessed as maximal electroshock-induced seizures at 346 umol/kg, ip administered 30 mins before electroshock challenge; format: functional
# Mus musculus [13] = assay: Anticonvulsant activity in Swiss albino mouse assessed as protection against subcutaneous pentylenetetrazol-induced seizures at 420 umol/kg, ip administered 30 mins before pentylenetetrazole challenge measured after 30 mins relative to stiripentol; format: functional
# Mus musculus [14] = assay: Anticonvulsant activity in Swiss albino mouse assessed as protection against subcutaneous pentylenetetrazol-induced seizures at 420 umol/kg, ip administered 30 mins before pentylenetetrazole challenge measured after 30 mins; format: functional
# Mus musculus [15] = assay: Anticonvulsant activity in Swiss albino mouse assessed as maximal electroshock-induced seizures at 420 umol/kg, ip administered 30 mins before electroshock challenge; format: functional, organism-based
# Mus musculus [16] = assay: Anticonvulsant activity in Swiss albino mouse assessed as protection against subcutaneous pentylenetetrazol-induced seizures at 350 umol/kg, ip administered 30 mins before pentylenetetrazole challenge measured after 30 mins; format: functional
# Mus musculus [17] = assay: Neurotoxicity in Swiss albino mouse assessed as climbing response to inverted mesh at 350 umol/kg, sc administered measured every 15 mins for 2 hrs by wire mesh grasping test; format: toxicity, organism-based; details: in vivo
# Mus musculus [18] = assay: Anticonvulsant activity in ip dosed Swiss albino mouse assessed as protection against subcutaneous pentylenetetrazol-induced seizures administered 30 mins before pentylenetetrazole challenge measured after 30 mins; format: functional
# Mus musculus [19] = assay: Neurotoxicity in Swiss albino mouse assessed as effect on hindlimb grip strength at 350 umol/kg, sc administered measured every 15 mins for 2 hrs; format: toxicity, organism-based; details: in vivo
# Mus musculus [20] = assay: Anticonvulsant activity in Swiss albino mouse assessed as maximal electroshock-induced seizures at 350 umol/kg, ip administered 30 mins before electroshock challenge; format: functional
# Mus musculus [21] = assay: Anticonvulsant activity in Swiss albino mouse assessed as protection against subcutaneous pentylenetetrazol-induced seizures at 350 umol/kg, ip administered 30 mins before pentylenetetrazole challenge measured after 30 mins relative to stiripentol; format: functional
# Mus musculus [22] = assay: Anticonvulsant activity in Swiss albino mouse assessed as protection against subcutaneous pentylenetetrazol-induced seizures at 410 umol/kg, ip administered 30 mins before pentylenetetrazole challenge measured after 30 mins relative to stiripentol; format: functional
# Mus musculus [23] = assay: Anticonvulsant activity in Swiss albino mouse assessed as protection against subcutaneous pentylenetetrazol-induced seizures at 410 umol/kg, ip administered 30 mins before pentylenetetrazole challenge measured after 30 mins; format: functional
# Mus musculus [24] = assay: Anticonvulsant activity in Swiss albino mouse assessed as maximal electroshock-induced seizures at 410 umol/kg, ip administered 30 mins before electroshock challenge; format: functional
# Mus musculus [25] = assay: Anticonvulsant activity in Swiss albino mouse assessed as protection against subcutaneous pentylenetetrazol-induced seizures at 108 umol/kg, ip administered 30 mins before pentylenetetrazole challenge measured after 30 mins; format: functional
# Mus musculus [26] = assay: Anticonvulsant activity in Swiss albino mouse assessed as protection against subcutaneous pentylenetetrazol-induced seizures at 159 umol/kg, ip administered 30 mins before pentylenetetrazole challenge measured after 30 mins; format: functional, organism-based
# Mus musculus [27] = assay: Anticonvulsant activity in Swiss albino mouse assessed as maximal electroshock-induced seizures at 159 umol/kg, ip administered 30 mins before electroshock challenge; format: functional
# Mus musculus [28] = assay: Anticonvulsant activity in Swiss albino mouse assessed as protection against subcutaneous pentylenetetrazol-induced seizures at 534 umol/kg, ip administered 30 mins before pentylenetetrazole challenge measured after 30 mins; format: functional
# Mus musculus [29] = assay: Anticonvulsant activity in Swiss albino mouse assessed as protection against subcutaneous pentylenetetrazol-induced seizures at 427 umol/kg, ip administered 30 mins before pentylenetetrazole challenge measured after 30 mins; format: functional
# Mus musculus [30] = assay: Anticonvulsant activity in Swiss albino mouse assessed as protection against subcutaneous pentylenetetrazol-induced seizures at 747 umol/kg, ip administered 30 mins before pentylenetetrazole challenge measured after 30 mins; format: functional
# Mus musculus [31] = assay: Anticonvulsant activity in Swiss albino mouse assessed as protection against subcutaneous pentylenetetrazol-induced seizures at 384 umol/kg, ip administered 30 mins before pentylenetetrazole challenge measured after 30 mins; format: functional
# Mus musculus [32] = assay: Anticonvulsant activity in Swiss albino mouse assessed as protection against subcutaneous pentylenetetrazol-induced seizures at 576 umol/kg, ip administered 30 mins before pentylenetetrazole challenge measured after 30 mins; format: functional
# Mus musculus [33] = assay: Anticonvulsant activity in Swiss albino mouse assessed as maximal electroshock-induced seizures at 640 umol/kg, ip administered 30 mins before electroshock challenge; format: functional
# Mus musculus [34] = assay: Neurotoxicity in Swiss albino mouse assessed as climbing response to inverted mesh at 747 umol/kg, sc administered measured every 15 mins for 2 hrs by wire mesh grasping test; format: toxicity, organism-based; details: in vivo
# Mus musculus [35] = assay: Anticonvulsant activity in ip dosed Swiss albino mouse assessed as maximal electroshock-induced seizures administered 30 mins before electroshock challenge; format: functional
# Mus musculus [36] = assay: Neurotoxicity in Swiss albino mouse assessed as effect on hindlimb grip strength at 747 umol/kg, sc administered measured every 15 mins for 2 hrs; format: toxicity, organism-based; details: in vivo
# Mus musculus [37] = assay: Anticonvulsant activity in Swiss albino mouse assessed as protection against subcutaneous pentylenetetrazol-induced seizures at 640 umol/kg, ip administered 30 mins before pentylenetetrazole challenge measured after 30 mins; format: functional
# Mus musculus [38] = assay: Anticonvulsant activity in Swiss albino mouse assessed as protection against subcutaneous pentylenetetrazol-induced seizures at 491 umol/kg, ip administered 30 mins before pentylenetetrazole challenge measured after 30 mins; format: functional
structure (smiles),measurement,setting,value
CC(C)(C)C1=NN(C(=O)Nc2ccc(Cl)cc2)C(c2ccc3c(c2)OCO3)C1 (racemic),Activity,Mus musculus [1],1.15%
same,Activity,Mus musculus [2],33%
same,Activity,Mus musculus [3],inactive
Cc1ccc(NC(=O)N2N=C(C(C)(C)C)CC2c2ccc3c(c2)OCO3)cc1 (racemic),Activity,Mus musculus [4],1.48 ratio to stiripentol
same,Activity,Mus musculus [5],83%
same,Activity,Mus musculus [6],inactive
Cc1ccccc1NC(=O)N1N=C(C(C)(C)C)CC1c1ccc2c(c1)OCO2 (racemic),Activity,Mus musculus [4],0.95 ratio to stiripentol
same,Activity,Mus musculus [5],16%
same,Activity,Mus musculus [6],inactive
CC(C)(C)C1=NN(C(=O)Nc2ccc(Cl)cc2Cl)C(c2ccc3c(c2)OCO3)C1 (racemic),Activity,Mus musculus [7],inactive
same,Activity,Mus musculus [8],33%
same,Activity,Mus musculus [9],1.26%
CC(C)(C)C1=NN(C(=O)Nc2ccc(F)cc2)C(c2ccc3c(c2)OCO3)C1 (racemic),Activity,Mus musculus [4],1.09 ratio to stiripentol
same,Activity,Mus musculus [5],33%
same,Activity,Mus musculus [6],inactive
CC(C)(C)C1=NN(C(N)=O)C(c2ccc3c(c2)OCO3)C1 (racemic),Activity,Mus musculus [10],16%
same,Activity,Mus musculus [11],1.11%
same,Activity,Mus musculus [12],66%
CC(C)(C)C1=NN(C(=O)c2ccccc2)C(c2ccc3c(c2)OCO3)C1 (racemic),Activity,Mus musculus [13],1.27%
same,Activity,Mus musculus [14],66%
same,Activity,Mus musculus [15],inactive
CC(C)(C)C1=NN(C(=O)c2ccc(Br)cc2)C(c2ccc3c(c2)OCO3)C1 (racemic),Activity,Mus musculus [16],100%
same,Activity,Mus musculus [17],Non-toxic
same,ED50,Mus musculus [18],110 mg/kg
same,Activity,Mus musculus [19],Non-toxic
same,Activity,Mus musculus [20],16%
same,Activity,Mus musculus [21],2.13%
CC(C)(C)C1=NN(C(=O)c2ccc(Cl)cc2)C(c2ccc3c(c2)OCO3)C1 (racemic),Activity,Mus musculus [4],1.26 ratio to stiripentol
same,Activity,Mus musculus [5],50%
same,Activity,Mus musculus [6],inactive
Cc1ccc(C(=O)N2N=C(C(C)(C)C)CC2c2ccc3c(c2)OCO3)cc1 (racemic),Activity,Mus musculus [22],1.04%
same,Activity,Mus musculus [23],33%
same,Activity,Mus musculus [24],33%
CCC1(c2ccccc2)C(=O)NC(=O)NC1=O [PHENOBARBITAL],Activity,Mus musculus [25],100%
O=C1NC(=O)C(c2ccccc2)(c2ccccc2)N1 [PHENYTOIN],Activity,Mus musculus [26],inactive
same,Activity,Mus musculus [27],100%
CC(C)(C)C(O)/C=C/c1ccc2c(c1)OCO2 (stereo not drawn) [STIRIPENTOL],Activity,Mus musculus [28],66%
same,Activity,Mus musculus [29],33%
same,Activity,Mus musculus [30],100%
same,ED50,Mus musculus [18],115 mg/kg
same,Activity,Mus musculus [31],16%
same,Activity,Mus musculus [32],83%
same,Activity,Mus musculus [33],66%
same,Activity,Mus musculus [34],Non-toxic
same,ED50,Mus musculus [35],277 mg/kg
same,Activity,Mus musculus [36],Non-toxic
same,Activity,Mus musculus [37],83%
same,Activity,Mus musculus [38],50%
